Assay results published in patent US9359423B2, “Protein involved in detection of cancer metastasis and a treatment thereof” (National University of Singapore, priority 2011, dated 2016).
pIC50: −log10 of the molar value.

Key:
[1] = biological target: T1, TRPV4 (Homo sapiens, UniProt Q9HBA0); details: 4α-phorbol 12,13-didecanoate stimulation; cited from earlier work
[2] = biological target: T1, TRPV4; details: cited from earlier work
[3] = biological target: T2, endogenous TRPV4 (Mus musculus, UniProt Q9EPK8); details: read-out: IC50, endogenous TRPV4-mediated response to 4α-PDH; 4α-PDH stimulation; cited from earlier work
T2 construct: endogenous in cells
T2 sequence (Q9EPK8 whole entry): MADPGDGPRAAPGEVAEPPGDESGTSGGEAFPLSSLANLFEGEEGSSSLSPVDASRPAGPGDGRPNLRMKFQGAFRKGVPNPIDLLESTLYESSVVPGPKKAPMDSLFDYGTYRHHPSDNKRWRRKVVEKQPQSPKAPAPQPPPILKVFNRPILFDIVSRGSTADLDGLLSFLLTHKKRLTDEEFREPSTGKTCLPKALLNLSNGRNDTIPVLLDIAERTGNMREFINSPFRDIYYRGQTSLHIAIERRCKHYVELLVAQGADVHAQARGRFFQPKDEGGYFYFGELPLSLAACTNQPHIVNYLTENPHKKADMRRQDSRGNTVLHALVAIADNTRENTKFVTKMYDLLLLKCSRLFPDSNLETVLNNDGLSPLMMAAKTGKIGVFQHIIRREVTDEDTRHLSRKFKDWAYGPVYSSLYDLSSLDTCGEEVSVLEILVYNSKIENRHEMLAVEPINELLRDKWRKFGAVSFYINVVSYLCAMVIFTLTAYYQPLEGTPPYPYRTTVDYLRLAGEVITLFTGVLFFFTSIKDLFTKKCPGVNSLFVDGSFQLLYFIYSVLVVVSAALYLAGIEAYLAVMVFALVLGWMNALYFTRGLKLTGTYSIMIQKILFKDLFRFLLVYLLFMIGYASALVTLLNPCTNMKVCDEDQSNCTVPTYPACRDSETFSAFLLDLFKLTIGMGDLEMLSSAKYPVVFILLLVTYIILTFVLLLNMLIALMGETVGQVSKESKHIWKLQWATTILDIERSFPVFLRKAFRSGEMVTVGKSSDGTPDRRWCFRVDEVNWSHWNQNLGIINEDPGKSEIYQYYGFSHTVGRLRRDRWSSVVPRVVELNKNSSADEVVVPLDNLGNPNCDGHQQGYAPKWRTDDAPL

[4] = cited from earlier work
[5] = tested on: E-cadherin, b-catenin and paxillin; experiment: Expression of cell-adhesion proteins after activation of TRPV4 by PDD; format: cell-based; details: PDD treatment, FIG. 4B
Description: (§1) FIG. 4A—Silencing of TRPV4 expression was associated with a failure to produce a rise of intracellular Ca2+ upon stimulation with PDD. […] 4C—Activation of TRPV4 by PDD treatment stimulated AKT, FAK and MAPK pathway.
FIG. 5—AKT mediates TRPV4-induced downregulation of E-cadherin and b-catenin. Down regulation of these cytoskeletal proteins correlate with an increase in cancer cell plasticity required for intravasation and extravasation processes during metastasis. Cells were either treated or not treated with PDD (activator of TRPV4) in the presence or absence of AKT inhibitor). Top 1 and 2 panels, inhibition of AKT is confirmed by probing the phosphorylation status of S6, a downstream target of AKT. Bottom 3-5 panels, PDD-induced downregulation of E-cadherin and b-catenin.

[6] = tested on: AKT, FAK and MAPK pathway; experiment: Pathway activation after activation of TRPV4 by PDD; format: cell-based; details: PDD treatment, FIG. 4C
Description: as §1

T1 sequence (Q9HBA0 whole entry, species assumed): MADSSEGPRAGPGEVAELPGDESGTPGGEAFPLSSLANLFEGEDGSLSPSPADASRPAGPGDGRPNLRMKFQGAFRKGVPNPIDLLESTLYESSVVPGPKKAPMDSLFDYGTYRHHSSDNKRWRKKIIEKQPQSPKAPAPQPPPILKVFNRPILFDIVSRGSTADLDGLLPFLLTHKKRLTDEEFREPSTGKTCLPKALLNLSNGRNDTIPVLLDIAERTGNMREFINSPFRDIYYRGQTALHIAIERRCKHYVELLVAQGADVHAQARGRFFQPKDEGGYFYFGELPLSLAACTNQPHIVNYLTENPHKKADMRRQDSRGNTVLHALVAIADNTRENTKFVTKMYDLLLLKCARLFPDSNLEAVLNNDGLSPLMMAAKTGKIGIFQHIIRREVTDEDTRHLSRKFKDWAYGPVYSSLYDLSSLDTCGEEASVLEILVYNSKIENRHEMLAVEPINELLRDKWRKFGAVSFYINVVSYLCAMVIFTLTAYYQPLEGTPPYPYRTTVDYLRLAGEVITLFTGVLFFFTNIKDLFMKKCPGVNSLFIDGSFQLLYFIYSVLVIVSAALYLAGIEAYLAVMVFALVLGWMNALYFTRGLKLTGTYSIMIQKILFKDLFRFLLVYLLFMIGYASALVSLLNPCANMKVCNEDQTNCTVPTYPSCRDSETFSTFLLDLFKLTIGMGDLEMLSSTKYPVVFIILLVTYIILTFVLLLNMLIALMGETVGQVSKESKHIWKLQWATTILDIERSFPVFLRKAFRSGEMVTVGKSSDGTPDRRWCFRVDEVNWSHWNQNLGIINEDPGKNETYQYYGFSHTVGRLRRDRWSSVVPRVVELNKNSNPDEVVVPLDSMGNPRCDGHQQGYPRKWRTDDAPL

Cc1c(C(=O)Nc2cccc(C(F)(F)F)c2)cc(-c2ccccc2)n1CCCN1CCOCC1 [formula 3]
Effect on 4α-PDD-induced Ca2+ responses [1]: reduces

N.N.N.N.N.N.N.N.N.N.N.N.N.N.[Cl-].[Cl-].[Cl-].[Cl-].[Cl-].[Cl-].[O-2].[O-2].[Ru+3].[Ru+3].[Ru+4] [Ruthenium red]
Inhibition of TRPV4 [2]: known inhibitor of TRPV4

Cc1c(C(=O)Nc2cccc(C(F)(F)F)c2)cc(-c2ccccc2)n1CCCN1CCOCC1 [formula 1, 2-Methyl-1-[3-(4-morpholinyl)propyl]-5-phenyl-N-[3-(trifluoromethyl)phenyl]-1H-pyrrole-3-carboxamide]
pIC50 [3]: 7.66 | Solubility in DMSO ([4]; DMSO): 100 mM | Solubility in ethanol ([4]; ethanol): 25 mM

CCCCCCCCCC(=O)O[C@@H]1[C@@H](C)[C@@]2(O)[C@@H](C=C(CO)C[C@@]3(O)C(=O)C(C)=C[C@@H]23)[C@@H]2C(C)(C)[C@]12OC(=O)CCCCCCCCC [PDD, 4α-phorbol 12,13-didecanoate]
Expression of cell-adhesion proteins like E-cadherin, b-catenin and paxillin [5]: reduced | AKT, FAK and MAPK pathway activation [6]: stimulated
